Measured values from the NIST ThermoML archive (doi:10.1016/j.jct.2015.12.031).

How the values were obtained:
[1] = mn = molality of the nth substance listed, in mol/kg; details: 86.5 kPa, Liquid; for speed of sound: Frequency=3 MHz, Sing-around technique in a fixed-path interferometer; for mass density: Vibrating tube method
[2] = refractive index (Na D-line) (dimensionless); mn = molality of the nth substance listed, in mol/kg; details: 86.5 kPa, Liquid, Standard Abbe refractometry

c1ccsc1 [thiophene] + CCCCCCCC
Details	mass density, [1] [kg/m3]	refractive index, [2]	speed of sound, [1] [m/s]
288.15 K, m1 = 0.0158	707.297	1.4002	1214.4
288.15 K, m1 = 0.0275	707.523	1.4003	1214.4
288.15 K, m1 = 0.0517	707.987	1.4004	1214.4
288.15 K, m1 = 0.0847	708.616	1.4005	1214.3
288.15 K, m1 = 0.0952	708.817	1.4006	1214.3
288.15 K, m1 = 0.1081	709.062	1.4006	1214.3
288.15 K, m1 = 0.1182	709.253	1.4007	1214.3
288.15 K, m1 = 0.1353	709.577	1.4008	1214.2
288.15 K, m1 = 0.1494	709.844	1.4008	1214.2
288.15 K, m1 = 0.1577	710	1.4009	1214.2
288.15 K, m1 = 0.1729	710.288	1.401	1214.2
288.15 K, m1 = 0.1797	710.414	1.401	1214.2
288.15 K, m1 = 0.1932	710.67	1.4011	1214.2
288.15 K, m1 = 0.2031	710.855	1.4012	1214.1
288.15 K, m1 = 0.3004	712.662	1.4017	1214
288.15 K, m1 = 0.4002	714.496	1.4023	1213.8
288.15 K, m1 = 0.5026	716.351	1.4028	1213.6
288.15 K, m1 = 0.5823	717.77	1.4033	1213.5
293.15 K, m1 = 0.0158	703.296	1.3976	1193.3
293.15 K, m1 = 0.0275	703.52	1.3977	1193.3
293.15 K, m1 = 0.0517	703.981	1.3978	1193.3
293.15 K, m1 = 0.0847	704.605	1.398	1193.2
293.15 K, m1 = 0.0952	704.805	1.3981	1193.2
293.15 K, m1 = 0.1081	705.047	1.3982	1193.2
293.15 K, m1 = 0.1182	705.236	1.3982	1193.2
293.15 K, m1 = 0.1353	705.558	1.3983	1193.2
293.15 K, m1 = 0.1494	705.822	1.3984	1193.2
293.15 K, m1 = 0.1577	705.976	1.3985	1193.2
293.15 K, m1 = 0.1729	706.262	1.3985	1193.2
293.15 K, m1 = 0.1797	706.389	1.3986	1193.1
293.15 K, m1 = 0.1932	706.641	1.3986	1193.1
293.15 K, m1 = 0.2031	706.824	1.3987	1193.1
293.15 K, m1 = 0.3004	708.627	1.3992	1193
293.15 K, m1 = 0.4002	710.432	1.3997	1192.9
293.15 K, m1 = 0.5026	712.275	1.4003	1192.7
293.15 K, m1 = 0.5823	713.683	1.4007	1192.6
298.15 K, m1 = 0.0158	699.223	1.3952	1172.4
298.15 K, m1 = 0.0275	699.447	1.3953	1172.4
298.15 K, m1 = 0.0517	699.907	1.3954	1172.4
298.15 K, m1 = 0.0847	700.53	1.3956	1172.3
298.15 K, m1 = 0.0952	700.728	1.3957	1172.3
298.15 K, m1 = 0.1081	700.97	1.3957	1172.3
298.15 K, m1 = 0.1182	701.159	1.3958	1172.3
298.15 K, m1 = 0.1353	701.48	1.3959	1172.3
298.15 K, m1 = 0.1494	701.743	1.396	1172.3
298.15 K, m1 = 0.1577	701.901	1.3961	1172.3
298.15 K, m1 = 0.1729	702.182	1.3961	1172.3
298.15 K, m1 = 0.1797	702.312	1.3962	1172.2
298.15 K, m1 = 0.1932	702.561	1.3962	1172.2
298.15 K, m1 = 0.2031	702.742	1.3963	1172.2
298.15 K, m1 = 0.3004	704.545	1.3968	1172.1
298.15 K, m1 = 0.4002	706.341	1.3973	1171.9
298.15 K, m1 = 0.5026	708.178	1.3978	1171.8
298.15 K, m1 = 0.5823	709.577	1.3982	1171.6
303.15 K, m1 = 0.0158	695.177	1.3926	1151.5
303.15 K, m1 = 0.0275	695.398	1.3927	1151.5
303.15 K, m1 = 0.0517	695.856	1.3928	1151.4
303.15 K, m1 = 0.0847	696.474	1.393	1151.4
303.15 K, m1 = 0.0952	696.672	1.393	1151.4
303.15 K, m1 = 0.1081	696.912	1.3931	1151.4
303.15 K, m1 = 0.1182	697.101	1.3932	1151.4
303.15 K, m1 = 0.1353	697.419	1.3933	1151.3
303.15 K, m1 = 0.1494	697.682	1.3934	1151.3
303.15 K, m1 = 0.1577	697.834	1.3934	1151.3
303.15 K, m1 = 0.1729	698.118	1.3935	1151.3
303.15 K, m1 = 0.1797	698.244	1.3935	1151.3
303.15 K, m1 = 0.1932	698.492	1.3936	1151.3
303.15 K, m1 = 0.2031	698.675	1.3936	1151.3
303.15 K, m1 = 0.3004	700.46	1.3941	1151.1
303.15 K, m1 = 0.4002	702.25	1.3947	1151
303.15 K, m1 = 0.5026	704.068	1.3953	1150.8
303.15 K, m1 = 0.5823	705.455	1.3957	1150.7
